The text below walks through data of patent US20250073235A1, “INHIBITION OF MAST CELL TUMOR NECROSIS FACTOR FOR THERAPEUTIC USE” (The University of Southern Mississippi, priority 2023, published 2025).

The subject of assay [1] is RBL-2H3 cells. Put plainly: total TNF protein level (ELISA), IgE/TNP-BSA activated mast cells. It is filed as cell-based, rat. The settings on record: for total TNF level, normalized against DMSO: FIG. 19; for overall level of TNF (total TNF protein): 1 hour. The method, then:
(§1) Sub-confluent RBL-2H3 cells (85%) grown on a 6-well plate were sensitized with 0.5 μg/ml anti-TNP IgE (BD Biosciences) and activated by 25 ng/ml TNP^(26)-BSA (Santa-Cruz) in RPMI 1640 (Corning) containing 0.1% BSA as described. The supernatant (around 1 ml) was collected from resting (no exposure to IgE) and activated (IgE and TNP-BSA) cells respectively and centrifuged at 500 g for 5 min at 4° C. to clear any cell debris. In the meantime, the cells attached to the bottom of the 6-well plates were lysed in 1 ml of cell culture medium, RPMI 1640 containing 0.1% BSA and 0.5% Triton X-100 for 5 min at RT. The lysate was centrifuged at 15,000 g for 5 min at 4° C. to clear any Triton-insoluble biomass. The cleared supernatant or lysate was separated into 3 aliquots: 800 μl were lyophilized for TNF assay; 50 μl were stored at −20° C. for serotonin and histamine assays; and the rest was used immediately for β-hexosaminidase assay.
(§2) β-hexosaminidase activity and TNF protein level were measured as commonly used in the art. To quantify histamine with an Enzyme Immunoassay (EIA) kit (EA213/96; Eagle Biosciences), the supernatant and cell lysates were diluted 100-fold in RPMI. Fifty μl of the diluted samples were then subject to acylation reaction and ELISA by following the manufacturer's instructions. To measure the level of serotonin, the supernatant and cell lysates were diluted 1:625 fold with standard buffer (EA630/96; Eagle Biosciences), 20 μl of which were subject to acylation and subsequent ELISA according to the manufacturer's instructions.
RBL-2H3 cells and derivatives growing in 6-well plates were sensitized for 3 h with 0.5 μg/mL mouse anti-TNP ([…]) IgE (BD Pharmingen) and stimulated with 25 ng/mL of TNP(26)-BSA (Santa Cruz). β-hexosaminidase activities and TNF levels in the supernatant and the cell lysates were quantified as previously described. […]. Reverse transcription and PCRs RBL-2H3 cells (˜40% confluent) cultured in a 24-well plate were treated with 250 μL of 0.25% Trypsin-EDTA (Gibco) that was subsequently neutralized with 750 μL of complete medium. About […] were collected for RT-qPCR (quantitative PCR) using TaqMan Gene Expression Cells-to-CT Kit (ThermoFisher Scientific) according to the manufacturer's instructions. Fluorescently labeled, target-specific probes ((3-actin: Rn00667869_ml; TNFR1: Rn01492348_ml; and TNFR2: Rn00709830_ml) were purchased from Thermofisher Scientific. The Cq values of TNFRs were standardized against that of β-actin utilizing the Bio-Rad CFX Maestro software and then the relative levels of mRNA expression were determined. For electrophoresis, TNFR1 was amplified from cDNA (prepared with the same TaqMan Gene Expression Cells-to-CT Kit described earlier) using […]-3′ (SEQ ID NO: 11) and 5′-[…]-3′ (SEQ ID NO: 12) as forward and reverse primers, whereas TNFR2 was amplified using 5′-[…]-3′ (SEQ ID NO: 13) and 5′-[…]-3′ (SEQ ID NO: 14) as forward and reverse primers. PCR was conducted in a 20 μL mixture containing 1× One Taq Master Mix (NEB) and 200 nM of primers. Where specified, 1 μL of rat universal cDNA (BioChain) was used as positive control.

For assay [2], the system named is RBL-2H3 cells. Kind of assay: TNF secretion assay (ELISA), IgE/TNP-BSA activated mast cells. The class given is cell-based, rat. The conditions noted are these: for TNF secretion (% of total TNF in the supernatant), normalized against DMSO: inhibitor added to sensitized RBL-2H3 cells 30 min before TNP-BSA, FIG. 19. As to the method: as §1, §2
(§3) The absolute value for the exocytosis of each mediator (V) was expressed as the percentage of the signal released into the supernatant (MS) relative to the total signal in the supernatant and in the lysate [V=MS/(MS+ML)%]. The value for IgE/allergen-dependent exocytosis was calculated by subtracting the value of the activated samples with the value of the resting samples (VE=VA−VR).
(§4) RBL-2H3 cells and derivatives growing in 6-well plates were sensitized for 3 h with 0.5 μg/mL mouse anti-TNP ([…]) IgE (BD Pharmingen) and stimulated with 25 ng/mL of TNP(26)-BSA (Santa Cruz). β-hexosaminidase activities and TNF levels in the supernatant and the cell lysates were quantified as previously described. […]. Reverse transcription and PCRs RBL-2H3 cells (˜40% confluent) cultured in a 24-well plate were treated with 250 μL of 0.25% Trypsin-EDTA (Gibco) that was subsequently neutralized with 750 μL of complete medium. About […] were collected for RT-qPCR (quantitative PCR) using TaqMan Gene Expression Cells-to-CT Kit (ThermoFisher Scientific) according to the manufacturer's instructions. […]

The subject of assay [3] is RBL-2H3 cells. Kind of assay: β-hexosaminidase secretion assay, IgE/TNP-BSA activated mast cells. The class given is cell-based, rat. The settings on record: for β-hexosaminidase secretion (% of total activity in the supernatant), normalized against DMSO: inhibitor added to sensitized RBL-2H3 cells 30 min before TNP-BSA, FIG. 19. The method, then:
as §1, §2, §3, §4

Assay [4] relates to activated mast cells. The settings on record: reference [31]; cited from earlier work.
In assay [5] the test system is activated mast cells. The conditions noted are these: reference [31]; cited from earlier work. The source holds these as a separate data set.
The mark [6] stands for this setting: inhibitor added to sensitized RBL-2H3 cells 30 min before TNP-BSA.

Entries after “also recorded” stand apart in the source; their conditions may differ.

For the molecule `CCOc1cc(C(=O)N2CCC(N3CCN(C)CC3)CC2)ccc1Nc1ncc2c(n1)N(S(C)(=O)=O)c1ccccc1C(=O)N2C` [AX-15836], the “reduction in total TNF level” value with RBL-2H3 cells [1] (inhibitor added to sensitized RBL-2H3 cells 30 min before TNP-BSA, statistically significant, FIG. 19B) turned out to be 10%.

Consider `Cc1ccc(-n2nc(C(C)(C)C)cc2NC(=O)Nc2ccc(OCCN3CCOCC3)c3ccccc23)cc1` [Doramapimod/BIRB 796, Doramapimod], for which, in the assay on RBL-2H3 cells [2], the “TNF secretion (% of total TNF in the supernatant), normalized against DMSO” value was “did not seem to affect exocytosis”. Besides, in the assay with RBL-2H3 cells [1] (setting [6]), the “total TNF level, normalized against DMSO” value was “did not seem to affect exocytosis or significantly reduce TNF proliferation”. The “β-hexosaminidase secretion (% of total activity in the supernatant), normalized against DMSO” value with RBL-2H3 cells [3] is listed as “did not seem to affect exocytosis”.

Consider `Cc1cc(NC(=O)c2cccc(NC(=O)/C=C/CN(C)C)c2)ccc1Nc1nccc(-c2cccnc2)n1` [JNK-IN-8], for which the “TNF secretion (% of total TNF in the supernatant), normalized against DMSO” value in the assay with RBL-2H3 cells [2] is given as “without impacting”. Moreover, in the assay on RBL-2H3 cells [1] (setting [6]), the “total TNF level, normalized against DMSO” value is listed as “diminished TNF level drastically”. Further, the “β-hexosaminidase secretion (% of total activity in the supernatant), normalized against DMSO” value with RBL-2H3 cells [3] is recorded as “without impacting”.

For `CC#CCOc1ccc(S(=O)(=O)CC(c2ccc(CNS(C)(=O)=O)cc2)N(O)C=O)cc1` (centres unmarked) [KP-457], the “amount of sTNF protein released into the supernatant” value with RBL-2H3 cells [2] (sensitized RBL-2H3 cells, inhibitor added along with TNP-BSA, concentrations between 0.3 M and 10 μM, 1 hour, FIG. 18B) was “significantly reduced”. Further, the “overall level of TNF (total TNF protein)” value in the assay with RBL-2H3 cells [1] (allergen-triggered RBL-2H3 cells, inhibitor added along with TNP-BSA, FIG. 18C) is listed as “inhibited the overall level of TNF; also recorded: TNF production is diminished”. In addition, the “exocytosis of β-hexosaminidase” value in the assay with RBL-2H3 cells [3] (sensitized RBL-2H3 cells, inhibitor added along with TNP-BSA, concentrations between 0.3 M and 10 μM, 1 hour, FIG. 18A) is “did not seem to affect”.

Take `Cn1nccc1Nc1nccc(-c2ccn([C@H](CO)c3ccc(Cl)c(F)c3)c(=O)c2)n1` [Ravoxertinib/GDC-0994, Ravoxertinib]: the “TNF secretion (% of total TNF in the supernatant), normalized against DMSO” value with RBL-2H3 cells [2] was “inhibited”. In addition, the “total TNF level, normalized against DMSO” value in the assay with RBL-2H3 cells [1] (setting [6]) is recorded as “inhibited”. Further, in the assay on RBL-2H3 cells [3], the “β-hexosaminidase secretion (% of total activity in the supernatant), normalized against DMSO” value is “inhibited”.

`CN(C)CCC=C1c2ccccc2CCc2ccccc21` [amitriptyline]: the serotonin release result in the assay with activated mast cells [4] is “without any influence”. Moreover, the histamine release entry in the assay on activated mast cells [5] is recorded as “specifically inhibit”.

B1: sTNFR1: soluble TNF receptor 1 (Genscript), sequesters secreted TNF (protein, UniProt P19438 30-211, looked up)
extracellular domain: LVPHLGDREKRDSVCPQGKYIHPQNNSICCTKCHKGTYLYNDCPGPGQDTDCRECESGSFTASENHLRHCLSCSKCRKEMGQVEISSCTVDRDTVCGCRKNQYRHYWSENLFQCFNCSLCLNGTVHLSCQEKQNTVCTCHAGFFLRENECVSCSNCKKSLECTKLCLPQIENVKGTEDSGTT
modifications: extracellular domain
With B1, the “overall level of TNF (total TNF protein)” value in the assay with RBL-2H3 cells [1] (sensitized RBL-2H3 cells incubated with sTNFR1 along with TNP-BSA, FIG. 17A) is recorded as “inhibited the overall level of TNF in a concentration dependent fashion”; with RBL-2H3 cells [1] (sensitized RBL-2H3 cells incubated with sTNFR1 along with TNP-BSA, FIG. 17A, listed as soluble TNFR1) it was “inhibits antigen-elicited TNF production in a dosage-dependent fashion”.
